Measurements taken from PMC11568388 (Molecular Biology and Evolution, 2024).

System: Aplysia californica
Type: in vivo

`NCC(O)c1ccc(O)cc1` (stereo not shown) [octopamine] was tested, and the “Behavior vs saline-injected control” value (in vivo) was “did not alter A. californica behavior significantly different from control”.

`NCCc1c[nH]c2ccc(O)cc12` [serotonin] was tested, and the Behavioral phenotype (in vivo) was “notable inability of the animal's foot to completely stick to the tank wall, resulting in impaired locomotion”, the “Onset of behavioral phenotype after injection” value (in vivo) was ≤ 1 min and the Locomotion (n = 3) was “immediate hyperlocomotive phenotype”.
